From PMC8979230 (RSC Advances, 2022)

Biological target: PDE10A (Homo sapiens, UniProt Q9Y233)
Type: biochemical

PDE10A, sequence (Q9Y233 whole entry): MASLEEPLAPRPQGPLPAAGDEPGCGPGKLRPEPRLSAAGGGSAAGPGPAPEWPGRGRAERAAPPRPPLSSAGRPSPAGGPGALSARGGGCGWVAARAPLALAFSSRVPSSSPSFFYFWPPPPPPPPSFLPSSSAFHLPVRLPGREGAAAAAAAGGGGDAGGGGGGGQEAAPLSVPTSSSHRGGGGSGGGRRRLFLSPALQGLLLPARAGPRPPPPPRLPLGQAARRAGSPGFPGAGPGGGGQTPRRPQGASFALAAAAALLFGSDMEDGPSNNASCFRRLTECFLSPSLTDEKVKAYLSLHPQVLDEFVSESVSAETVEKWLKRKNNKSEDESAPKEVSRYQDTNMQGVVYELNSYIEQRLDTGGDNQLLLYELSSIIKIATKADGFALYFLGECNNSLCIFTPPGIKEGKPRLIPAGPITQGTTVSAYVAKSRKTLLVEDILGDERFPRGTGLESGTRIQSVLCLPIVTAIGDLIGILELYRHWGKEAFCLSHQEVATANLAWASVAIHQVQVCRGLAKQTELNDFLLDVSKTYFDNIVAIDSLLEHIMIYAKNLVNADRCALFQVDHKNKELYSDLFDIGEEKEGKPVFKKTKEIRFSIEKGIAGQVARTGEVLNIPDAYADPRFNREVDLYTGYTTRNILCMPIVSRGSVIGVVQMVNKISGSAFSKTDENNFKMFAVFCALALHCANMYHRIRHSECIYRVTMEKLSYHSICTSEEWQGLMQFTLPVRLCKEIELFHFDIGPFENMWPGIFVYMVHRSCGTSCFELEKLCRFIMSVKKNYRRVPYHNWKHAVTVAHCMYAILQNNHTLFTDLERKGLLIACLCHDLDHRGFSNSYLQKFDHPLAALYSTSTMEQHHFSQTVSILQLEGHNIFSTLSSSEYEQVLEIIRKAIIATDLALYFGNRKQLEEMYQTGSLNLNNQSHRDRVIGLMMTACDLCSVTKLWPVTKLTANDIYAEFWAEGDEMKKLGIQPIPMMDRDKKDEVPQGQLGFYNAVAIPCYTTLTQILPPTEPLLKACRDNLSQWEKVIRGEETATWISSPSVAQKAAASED

Q: With Zinc42657360 as the substance, how does the IC50 read?
A: 1600 nM
